Reference: ChEMBL document CHEMBL4373695, “Structure-Based Design of 5-Methylpyrimidopyridone Derivatives as New Wild-Type Sparing Inhibitors of the Epidermal Growth Factor Receptor Triple Mutant (EGFRL858R/T790M/C797S)” (J Med Chem, 2019)
The source made the active and inactive calls. The calls are words filed in the database; no cut-off is given here.

Key:
[1] = target: Epidermal growth factor receptor (Homo sapiens, UniProt P00533, C797S/L858R/T790M); assay: (§1) Inhibition of human C-terminal His-tagged and N-terminal GST-tagged EGFR L858R/T790M/C797S triple mutant ( 668 to 1210 amino acids) expressed in baculovirus infected Sf9 insect cells using Poly(Glu,Tyr) 4:1 as substrate after 60 mins by ELISA
Chain of Epidermal growth factor receptor (Homo sapiens, UniProt P00533, C797S/L858R/T790M) (P00533 25-1210 T790M/C797S/L858R limits assumed): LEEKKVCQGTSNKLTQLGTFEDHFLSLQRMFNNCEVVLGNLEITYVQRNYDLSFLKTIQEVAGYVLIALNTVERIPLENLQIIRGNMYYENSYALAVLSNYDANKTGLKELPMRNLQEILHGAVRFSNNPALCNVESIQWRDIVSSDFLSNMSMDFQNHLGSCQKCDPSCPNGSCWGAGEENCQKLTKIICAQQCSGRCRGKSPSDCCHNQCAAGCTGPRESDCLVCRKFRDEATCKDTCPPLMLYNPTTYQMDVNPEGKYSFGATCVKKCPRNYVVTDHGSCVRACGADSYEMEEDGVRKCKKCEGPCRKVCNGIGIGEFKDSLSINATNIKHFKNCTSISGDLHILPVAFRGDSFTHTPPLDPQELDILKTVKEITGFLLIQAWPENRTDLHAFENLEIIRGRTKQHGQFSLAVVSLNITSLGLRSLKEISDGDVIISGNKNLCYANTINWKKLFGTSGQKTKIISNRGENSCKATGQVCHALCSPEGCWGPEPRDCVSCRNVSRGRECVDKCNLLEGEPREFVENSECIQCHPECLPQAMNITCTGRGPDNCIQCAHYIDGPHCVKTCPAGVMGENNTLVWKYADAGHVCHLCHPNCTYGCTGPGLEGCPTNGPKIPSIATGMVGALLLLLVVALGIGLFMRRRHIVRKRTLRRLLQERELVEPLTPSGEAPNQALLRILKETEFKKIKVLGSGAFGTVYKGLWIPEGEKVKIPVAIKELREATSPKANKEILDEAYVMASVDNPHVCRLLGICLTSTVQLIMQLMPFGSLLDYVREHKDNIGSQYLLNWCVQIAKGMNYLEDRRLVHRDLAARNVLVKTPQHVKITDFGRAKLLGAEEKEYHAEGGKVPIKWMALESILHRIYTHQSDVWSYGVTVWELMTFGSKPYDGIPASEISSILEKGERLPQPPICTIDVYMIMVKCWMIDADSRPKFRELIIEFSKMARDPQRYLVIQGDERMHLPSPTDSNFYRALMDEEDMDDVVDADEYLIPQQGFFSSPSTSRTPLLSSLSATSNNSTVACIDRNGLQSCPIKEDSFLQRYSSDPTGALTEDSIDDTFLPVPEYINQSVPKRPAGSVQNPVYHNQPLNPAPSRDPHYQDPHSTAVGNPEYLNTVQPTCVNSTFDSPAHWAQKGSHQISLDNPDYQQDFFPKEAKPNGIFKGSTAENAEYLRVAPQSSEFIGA

[2] = target: T1, Epidermal growth factor receptor (Homo sapiens, UniProt P00533); assay: Inhibition of wild-type EGFR (unknown origin) using Poly(Glu,Tyr) 4:1 as substrate after 60 mins by ELISA
T1 sequence (P00533 whole entry): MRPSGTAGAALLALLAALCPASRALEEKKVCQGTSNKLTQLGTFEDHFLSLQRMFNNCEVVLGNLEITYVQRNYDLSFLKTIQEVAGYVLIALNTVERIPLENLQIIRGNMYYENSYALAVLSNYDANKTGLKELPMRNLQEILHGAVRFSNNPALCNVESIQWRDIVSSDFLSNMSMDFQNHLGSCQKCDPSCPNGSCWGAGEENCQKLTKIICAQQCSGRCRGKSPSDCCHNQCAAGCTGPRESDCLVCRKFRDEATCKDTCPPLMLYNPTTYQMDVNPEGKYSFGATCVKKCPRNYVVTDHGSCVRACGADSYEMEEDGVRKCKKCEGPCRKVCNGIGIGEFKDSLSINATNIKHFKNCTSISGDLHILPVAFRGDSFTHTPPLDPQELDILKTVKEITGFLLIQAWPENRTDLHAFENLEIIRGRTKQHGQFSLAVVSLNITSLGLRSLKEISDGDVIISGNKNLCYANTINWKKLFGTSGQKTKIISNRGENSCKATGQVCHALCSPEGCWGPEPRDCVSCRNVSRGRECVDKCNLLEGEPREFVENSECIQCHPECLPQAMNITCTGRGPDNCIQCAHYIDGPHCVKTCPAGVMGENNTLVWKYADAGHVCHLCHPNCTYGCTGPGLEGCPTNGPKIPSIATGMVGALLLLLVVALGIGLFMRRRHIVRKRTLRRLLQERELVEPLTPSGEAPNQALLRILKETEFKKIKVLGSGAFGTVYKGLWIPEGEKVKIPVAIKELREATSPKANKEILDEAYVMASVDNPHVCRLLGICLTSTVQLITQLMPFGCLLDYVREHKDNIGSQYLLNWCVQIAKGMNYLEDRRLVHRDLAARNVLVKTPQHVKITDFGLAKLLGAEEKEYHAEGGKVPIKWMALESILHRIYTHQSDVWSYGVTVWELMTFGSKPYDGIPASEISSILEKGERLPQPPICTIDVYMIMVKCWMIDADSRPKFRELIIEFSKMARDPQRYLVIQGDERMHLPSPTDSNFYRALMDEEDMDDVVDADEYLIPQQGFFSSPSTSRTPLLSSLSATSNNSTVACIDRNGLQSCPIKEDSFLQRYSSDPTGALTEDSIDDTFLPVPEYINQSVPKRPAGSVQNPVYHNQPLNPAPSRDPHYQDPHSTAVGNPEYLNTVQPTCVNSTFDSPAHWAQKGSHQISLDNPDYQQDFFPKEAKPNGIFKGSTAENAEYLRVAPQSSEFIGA

[3] = target: Epidermal growth factor receptor (Homo sapiens, UniProt P00533, T790M/C797S/L858R); assay: as §1; settings: sf9
Chain of Epidermal growth factor receptor (Homo sapiens, UniProt P00533, T790M/C797S/L858R) (P00533 25-1210 T790M/C797S/L858R limits assumed): as the sequence (P00533 25-1210 T790M/C797S/L858R limits assumed) above

[4] = Metabolic stability in rat liver microsomes preincubated for 5 mins followed by NADPH addition and measured after 5 to 45 mins by LC/MS analysis; type: ADME, Microsome
[5] = system: Epidermal growth factor receptor (Homo sapiens), P00533 [L858R,T790M,C797S]; assay: Inhibition of EGFR L858R/T790M/C797S triple mutant (unknown origin) transfected in mouse BAF3 cells assessed as reduction in EGF-induced EGFR phosphorylation at 0.1 to 3 uM by Western blot analysis; type: cell-based
Chain of Epidermal growth factor receptor (Homo sapiens), P00533 [L858R,T790M,C797S] (P00533 whole entry T790M/C797S/L858R): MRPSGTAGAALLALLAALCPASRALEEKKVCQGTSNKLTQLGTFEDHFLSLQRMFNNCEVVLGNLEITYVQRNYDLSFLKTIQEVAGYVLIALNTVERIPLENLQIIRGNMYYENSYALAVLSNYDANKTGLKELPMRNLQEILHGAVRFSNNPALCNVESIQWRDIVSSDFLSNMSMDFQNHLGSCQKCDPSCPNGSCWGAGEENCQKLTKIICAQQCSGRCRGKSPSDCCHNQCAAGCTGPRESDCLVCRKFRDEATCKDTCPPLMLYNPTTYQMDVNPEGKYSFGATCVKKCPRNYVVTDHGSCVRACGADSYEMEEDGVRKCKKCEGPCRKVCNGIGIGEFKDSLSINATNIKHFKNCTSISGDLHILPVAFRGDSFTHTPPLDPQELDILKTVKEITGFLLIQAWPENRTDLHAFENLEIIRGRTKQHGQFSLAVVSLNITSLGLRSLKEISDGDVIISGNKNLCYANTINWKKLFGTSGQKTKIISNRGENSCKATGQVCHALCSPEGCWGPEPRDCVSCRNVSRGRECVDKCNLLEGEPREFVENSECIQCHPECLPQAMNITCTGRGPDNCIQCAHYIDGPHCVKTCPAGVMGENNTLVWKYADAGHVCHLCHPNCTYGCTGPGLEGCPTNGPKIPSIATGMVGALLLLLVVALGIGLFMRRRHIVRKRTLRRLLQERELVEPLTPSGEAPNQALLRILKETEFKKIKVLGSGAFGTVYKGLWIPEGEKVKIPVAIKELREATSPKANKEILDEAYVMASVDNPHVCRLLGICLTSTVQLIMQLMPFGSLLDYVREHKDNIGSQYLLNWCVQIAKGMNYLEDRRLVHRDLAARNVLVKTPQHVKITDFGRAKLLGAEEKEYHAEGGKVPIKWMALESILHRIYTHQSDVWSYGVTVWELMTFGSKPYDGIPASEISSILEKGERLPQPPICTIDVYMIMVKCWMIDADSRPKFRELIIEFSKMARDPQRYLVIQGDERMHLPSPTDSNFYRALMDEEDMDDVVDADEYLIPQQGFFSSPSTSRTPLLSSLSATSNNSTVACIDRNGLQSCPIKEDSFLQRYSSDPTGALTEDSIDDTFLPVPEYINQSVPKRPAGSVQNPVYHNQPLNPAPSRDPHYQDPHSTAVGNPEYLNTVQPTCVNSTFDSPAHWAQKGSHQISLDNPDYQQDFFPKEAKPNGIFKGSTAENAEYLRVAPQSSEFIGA

[6] = target: T1, Epidermal growth factor receptor; assay: Inhibition of wild-type EGFR (unknown origin) transfected in human A431 cells assessed as reduction in EGF-induced EGFR phosphorylation at 0.1 to 3 uM by Western blot analysis; type: cell-based
[7] = Permeability of the compound in human Caco2 cells at 10 uM after 120 mins by LC-MS/MS analysis; type: ADME, cell-based; settings: caco-2, 2 h
BaF3 = assay: Antiproliferative activity against mouse BAF3 cells harboring EGFR L858R/T790M/C797S triple mutant after 72 hrs by resazurin dye-based fluorescence assay; type: functional, cell-based; settings: BaF3, 72 h
[8] = Aqueous solubility of the compound at 2 mg at pH 7.4 after 24 hrs by LC-MS/MS analysis; type: physicochemical; settings: pH 7.4, 24 h

| SMILES | IC50 [1] [µM] | IC50 [2] [µM] | further results |
| --- | --- | --- | --- |
| N#Cc1ccc(O)c(-c2nc(NCc3cnccn3)c3ccccc3n2)c1 | 0.0387 | > 1 |  |
| CCC(=O)N1CCC[C@@H](n2c(=O)c(-c3ccccc3)c(C)c3cnc(Nc4ccc(N5CCN(C)CC5)c(C)c4)nc32)C1 | > 1 | > 1 |  |
| CCC(=O)N1CCC[C@@H](n2c(=O)c(-c3ccc(Cl)cc3)c(C)c3cnc(Nc4ccc(N5CCN(C)CC5)c(C)c4)nc32)C1 | > 1 | > 1 |  |
| CCC(=O)N1CCC[C@@H](n2c(=O)c(-c3cccc(Cl)c3)c(C)c3cnc(Nc4ccc(N5CCN(C)CC5)c(C)c4)nc32)C1 | > 1 | > 1 |  |
| CCC(=O)N[C@H]1CC[C@@H](n2c(=O)c(-c3ccccc3Cl)c(C)c3cnc(Nc4ccc(N5CCN(C)CC5)c(C)c4)nc32)CC1 (stereo in doubt; 8c-A) | 0.519 | > 1 |  |
| CCC(=O)N[C@H]1CC[C@@H](n2c(=O)c(-c3ccccc3Cl)c(C)c3cnc(Nc4ccc(N5CCN(C)CC5)c(C)c4)nc32)CC1 (stereo in doubt; 8c-B) | 0.0277 | 0.169 |  |
| CCC(=O)N1CCC[C@H](n2c(=O)c(-c3ccccc3Cl)c(C)c3cnc(Nc4ccc(N5CCN(C)CC5)c(C)c4)nc32)C1 (stereo in doubt; 8e-A) | > 1 | > 1 |  |
| CCC(=O)N1CCC[C@H](n2c(=O)c(-c3ccccc3Cl)c(C)c3cnc(Nc4ccc(N5CCN(C)CC5)c(C)c4)nc32)C1 (stereo in doubt; 8e-B) |  | > 1 | IC50 [3]: > 1 µM |
| CCC(=O)N1CCC[C@@H](n2c(=O)c(-c3ccccc3Cl)c(C)c3cnc(Nc4ccc(N5CCN(C)CC5)c(C)c4)nc32)C1 (stereo in doubt; 8f-A) | > 1 | > 1 |  |
| CCC(=O)N1CCC[C@@H](n2c(=O)c(-c3ccccc3Cl)c(C)c3cnc(Nc4ccc(N5CCN(C)CC5)c(C)c4)nc32)C1 (stereo in doubt; 8f-B) | 0.0651 | > 1 |  |
| CCC(=O)N1CC[C@@H](n2c(=O)c(-c3ccccc3Cl)c(C)c3cnc(Nc4ccc(N5CCN(C)CC5)c(C)c4)nc32)C1 (stereo in doubt; 8g-A) | > 1 | > 1 |  |
| CCC(=O)N1CC[C@@H](n2c(=O)c(-c3ccccc3Cl)c(C)c3cnc(Nc4ccc(N5CCN(C)CC5)c(C)c4)nc32)C1 (stereo in doubt; 8g-B) | 0.0817 | > 1 |  |
| CCC(=O)N1CCC[C@@H](n2c(=O)c(-c3ccccc3Br)c(C)c3cnc(Nc4ccc(N5CCN(C)CC5)c(C)c4)nc32)C1 (stereo in doubt; 8l-A) | 0.498 | > 1 |  |
| CCC(=O)N1CCC[C@@H](n2c(=O)c(-c3ccccc3Br)c(C)c3cnc(Nc4ccc(N5CCN(C)CC5)c(C)c4)nc32)C1 (stereo in doubt; 8l-B) | 0.0561 | > 1 |  |
| CCC(=O)N1CCC[C@@H](n2c(=O)c(-c3ccccc3C)c(C)c3cnc(Nc4ccc(N5CCN(C)CC5)c(C)c4)nc32)C1 (stereo in doubt; 8m-A) | 0.588 | > 1 |  |
| CCC(=O)N1CCC[C@@H](n2c(=O)c(-c3ccccc3C)c(C)c3cnc(Nc4ccc(N5CCN(C)CC5)c(C)c4)nc32)C1 (stereo in doubt; 8m-B) | 0.228 | > 1 |  |
| CCC(=O)N1CCC[C@@H](n2c(=O)c(-c3cc(F)ccc3Cl)c(C)c3cnc(Nc4ccc(N5CCN(C)CC5)c(C)c4)nc32)C1 (stereo in doubt; 8p-A) | 0.207 | > 1 |  |
| CCC(=O)N1CCC[C@@H](n2c(=O)c(-c3cc(F)ccc3Cl)c(C)c3cnc(Nc4ccc(N5CCN(C)CC5)c(C)c4)nc32)C1 (stereo in doubt; 8p-B) | 0.0371 | > 1 |  |
| CCC(=O)N1CCC[C@@H](n2c(=O)c(-c3ccc(F)cc3Cl)c(C)c3cnc(Nc4ccc(N5CCN(C)CC5)c(C)c4)nc32)C1 (stereo in doubt; 8q-A) | 0.224 | > 1 |  |
| CCC(=O)N1CCC[C@@H](n2c(=O)c(-c3ccc(F)cc3Cl)c(C)c3cnc(Nc4ccc(N5CCN(C)CC5)c(C)c4)nc32)C1 (stereo in doubt; 8q-B) | 0.0886 | > 1 |  |
| CCC(=O)N1CCC[C@@H](n2c(=O)c(-c3cccc(F)c3Cl)c(C)c3cnc(Nc4ccc(N5CCN(C)CC5)c(C)c4)nc32)C1 (stereo in doubt; 8r-B) |  |  | Stability [4]: Unstable; inhibition [5]: Active; inhibition (INH) [6]: Not Active; permeability [7]: Permeable; IC50 (BaF3): 0.662 µM; solubility [8]: Soluble |
